Reference: ChEMBL document CHEMBL5137060, “Glioblastoma: Current Status, Emerging Targets, and Recent Advances” (J Med Chem, 2022)
pIC50, pKi: −log10 of the molar value.

What was measured:
[1] = Water solubility of the compound; format: physicochemical
[2] = Plasma stability in human relative to control; format: ADME, cell-free
[3] = Plasma stability in monkey relative to control; format: ADME, cell-free, Macaca mulatta; settings: rhesus monkey
[4] = Plasma stability in mouse relative to control; format: ADME, cell-free
Translocator protein = Translocator protein (Homo sapiens, UniProt P30536); assay: Binding affinity to TSPO (unknown origin)
Chain of Translocator protein (P30536 whole entry): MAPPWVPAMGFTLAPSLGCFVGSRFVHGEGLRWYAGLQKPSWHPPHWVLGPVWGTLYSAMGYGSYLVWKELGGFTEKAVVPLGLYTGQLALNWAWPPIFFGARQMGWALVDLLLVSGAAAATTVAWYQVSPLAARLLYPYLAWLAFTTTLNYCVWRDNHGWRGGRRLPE

T98G [5] = assay: Cytotoxicity against human T98G cells; format: functional
U-87 MG = assay: Cytotoxicity against human U87 cells; format: functional, U-87MG ATCC
[6] = Antiproliferative activity against human U-87 MG cells assessed as inhibitionof cell growth incubated for 24 to 72 hrs by MTT assay; format: functional, cell-based, U-87MG ATCC
[7] = Cytotoxicity against human U-87 MG cells; format: functional, cell-based, U-87MG ATCC
U-251 [8] = assay: Cytotoxicity against human U-251 cells; format: functional, cell-based
DBTRG-05MG = assay: Cytotoxicity against human DBTRG cells; format: functional, cell-based
[9] = Cytotoxicity against human glial cells; format: toxicity, cell-based, Glial cell
C6 = assay: Anticancer activity against rat C6 cells; format: functional, cell-based
Astrocyte = assay: Cytotoxicity against NHA cells; format: functional, cell-based; settings: Homo sapiens
[10] = Cytotoxicity against patient derived xenografted D456 cells; format: functional, cell-based; settings: Homo sapiens
Hs 683 = assay: Growth inhibition of human Hs 683 cells; format: functional
[11] = Growth inhibition of human U373 cells; format: functional; settings: U373 MG
U-251 [12] = assay: Cytotoxicity against human U251N cells incubated for 24 to 72 hrs by fluorescence microscopic analysis; format: functional, cell-based
U-251 [13] = assay: Inhibition of cell migration of human U251N cells relative to control; format: functional
[14] = Antiproliferative activity against human ANGM-CSS cells assessed as inhibition of cell growth incubated for 72 hrs by MTS assay; format: functional, cell-based
[15] = Antiproliferative activity against human U-343MG cells assessed as inhibition of cell growth incubated for 72 hrs by MTS assay; format: functional, cell-based
[16] = Antiproliferative activity against human U-87 MG cells incubated for 72 hrs by MTT assay; format: functional, cell-based, U-87MG ATCC
SNB-19 = assay: Cytotoxicity against human SNB-19 cells assessed as cell viability measured after 48 hrs by countess-II FL Hemocytometer method; format: functional, cell-based; settings: SNB-19, 48 h
LN-229 = assay: Cytotoxicity against human LN-229 cells assessed as cell viability measured after 48 hrs by countess-II FL Hemocytometer method; format: functional, cell-based; settings: LN-229, 48 h
[17] = Cytotoxicity against patient derived glioblastoma T86 cells; format: functional; settings: Homo sapiens, read-out: LC50 (the source's name)
[18] = Inhibition of cell migration of patient derived glioblastoma T86 spheroid cell culture treated at 10 uM for 24 hrs by propidium iodide staining method relative to control; format: functional; settings: Homo sapiens
[19] = Cytotoxicity against patient derived glioblastoma T111 cells; format: functional; settings: Homo sapiens, read-out: LC50 (the source's name)
[20] = Inhibition of cell migration of patient derived glioblastoma T78 spheroid cell culture treated at 10 uM for 24 hrs by propidium iodide staining method relative to control; format: functional; settings: Homo sapiens
[21] = Cytotoxicity against patient derived glioblastoma T78 cells; format: functional; settings: Homo sapiens, read-out: LC50 (the source's name)
[22] = Cytotoxicity against U87MG Human EGFR vIII cells; format: functional, cell-based
[23] = Cytotoxicity against human U-87G cells assessed as cell viability; format: functional, cell-based; settings: U87G
U-251 [24] = assay: Cytotoxicity against human U-251MG cells assessed as cell viability; format: functional, cell-based
T98G [25] = assay: Cytotoxicity against human T98G cells assessed as cell viability; format: functional, cell-based
U-251 [26] = assay: Cytotoxicity against human U-251 cells assessed cell growth inhibition incubated for 48 hrs by CCK8 assay; format: functional, cell-based; settings: U-251, 48 h
[27] = Cytotoxicity against human 091214 cells assessed cell growth inhibition incubated for 48 hrs by CCK8 assay; format: functional, cell-based; settings: Homo sapiens, 091214, 48 h

In the case of CCOC(=O)[C@H](CCC(=O)C=[N+]=N)NC(=O)OC(C)OC(=O)C(C)(C)C (stereo partly drawn), the solubility [1] was > 25 mg/mL.
Molecule CC(C)OC(=O)[C@H](CCC(=O)C=[N+]=[N-])NC(=O)[C@@H](N)Cc1c[nH]c2ccccc12 has a Stability [2] of 61%, a Stability [3] of 10% and a Stability [4] of 0%.
In the case of Cc1ccc(CN(C)C(=O)c2nc(-c3ccccc3Cl)c3ccccc3n2)cc1, the pKi (Translocator protein) was 8.40.
With O=C(NO)C(c1ccccc1)c1c(-c2ccc3ccccc3c2)[nH]c2ccccc12 (stereo not drawn) the GI50 (T98G [5]) was 1.9 µM and the GI50 (U-87 MG) was 21.3 µM.
Molecule C[C@@H]1C2CCCC3CC[C@]4(C)OO[C@]32[C@H](O[C@@H]1OCCCN=C=S)O4 (stereo partly drawn) has a pIC50 [6] of 5.13.
O=C1c2cc(-c3cccnc3)ncc2C(=O)c2c1c(-c1ccccn1)nn2-c1ccc(F)cc1F showed a pIC50 [7] of 5.60, a pIC50 (U-251 [8]) of 5.60 and a pIC50 (DBTRG-05MG) of 5.60.
CCOC(=O)/C=C/c1ccc(/C=C/c2ccc(O)c(O)c2)cc1 gave a pIC50 [9] of 4.07 and a pIC50 (C6) of 5.41.
Molecule Cc1ccc(C(C(=O)NO)c2c(-c3ccc4ccccc4c3)[nH]c3ccccc23)cc1C (stereo not drawn) has a GI50 (T98G [5]) of 7.5 µM and a GI50 (U-87 MG) of 6.7 µM.
Molecule O=C1Nc2ccccc2C12CCN[C@@H]2c1ccccc1 (stereo partly drawn) has a pIC50 (Astrocyte) of 3.99 and a pIC50 [10] of 4.39.
In the case of O=C(c1ccccc1)c1[nH]c2[nH]cnc(=O)c2c1-c1ccccc1, the GI50 (Hs 683) was 0.01 µM and the GI50 [11] was ≤ 0.01 µM.
For COc1cc(NC(C)CCCNC(=O)CCCC(=O)NO)c2ncccc2c1 (stereo not drawn), the pIC50 (U-251 [12]) was 5.00 and the “inhibition (INH)” value (U-251 [13]) was 42%.
Work on NC(=O)CC(c1ccc(NC(=O)c2cccnc2)cc1)c1cccc2[nH]ccc12 (stereo not drawn) yielded a pIC50 (Astrocyte) of 4.56 and a pIC50 [10] of 5.06.
O=C1Nc2ccccc2C1Cc1ccc2cc[nH]c2c1 (stereo not drawn) showed a pIC50 (Astrocyte) of 4.61 and a pIC50 [10] of 4.67.
In the case of O=C1Nc2ccc(NC(=O)[C@H](NC(=O)c3cccn(Cc4ccc(F)c(F)c4)c3=O)c3ccccc3)cc2/C1=C/c1cnc[nH]1, the pIC50 [14] was 7.36 and the pIC50 [15] was 7.30.
With O=C(NO)c1ccc(Cn2c(=O)n(CCc3ccccc3)c(=O)c3ccccc32)cc1 the pIC50 [16] was 5.81.
Work on O=C(Nc1ccc(Cl)c(C(F)(F)F)c1)c1ccc(Cl)cc1 yielded a pIC50 (Astrocyte) of 4.85 and a pIC50 [10] of 5.53.
Molecule CC(C)(C)[Si](O[C@H]1[C@H](O)C[C@](O)(CO)C[C@H]1O[Si](c1ccccc1)(c1ccccc1)C(C)(C)C)(c1ccccc1)c1ccccc1 has a pIC50 (SNB-19) of 4.55 and a pIC50 (LN-229) of 4.97.
CCn1c(-c2nonc2N)nc2cncc(CNC3CCNCC3)c21 showed a CC50 [17] of 456 µM, an inhibition at 10 µM [18] of 60.4% and a CC50 [19] of 112 µM. It also gave an inhibition at 10 µM [20] of 37.8% and a CC50 [21] of 115 µM.
With O=C(COc1ccc2c(=O)c(-c3ccccc3)coc2c1)N=c1[nH]c2ccccc2[nH]1 the pIC50 (Astrocyte) was 5.32 and the pIC50 [10] was 5.18.
CCOC(=O)[C@H](CCC(=O)C=[N+]=[N-])NC(=O)[C@@H](N)Cc1c[nH]c2ccccc12 gave a Stability [2] of 12%, a Stability [3] of 4% and a Stability [4] of 0%.
CC(C)(C)OC(=O)N1CC[C@@]2(C(=O)Nc3ccccc32)[C@@H]1c1cccc(Nc2ccc(CO)c(S(C)(=O)=O)c2)c1 gave a pIC50 [22] of 5.75 and a pIC50 (U-251 [8]) of 5.65.
With C[C@H]1O[C@@H](O[C@H]2CC[C@]3(C=O)[C@H]4CC[C@]5(C)[C@@H](C6CCC(=O)OC6)CC[C@]5(O)[C@@H]4CC[C@]3(O)C2)[C@H](O)[C@@H](O)[C@@H]1O (stereo partly drawn) the pIC50 [23] was 4.40, the pIC50 (U-251 [24]) was 4.15 and the pIC50 (T98G [25]) was 4.30.
With C[C@@H]1O[C@@H](O[C@H]2CC[C@H](O[C@H]3[C@H](O)C[C@H](c4ccc5c(c4O)C(=O)c4ccc(C[C@](C)(CC(=O)O)O[C@H]6CC[C@H](O[C@H]7CCC(=O)[C@H](C)O7)[C@H](C)O6)c(O)c4C5=O)O[C@@H]3C)O[C@H]2C)CCC1=O [GRINCAMYCIN B] the pIC50 (U-251 [26]) was 5.69 and the pIC50 [27] was 5.51.
With O=C1CC(c2ccc(-c3cc[nH]n3)s2)c2cc(N3CCNC3=O)ccc2N1 (stereo not drawn) the pIC50 (Astrocyte) was 5.39 and the pIC50 [10] was 5.80.
For COC(=O)/C=C/c1ccc(/C=C/c2ccc(O)c(O)c2)cc1, the pIC50 [9] was 3.85 and the pIC50 (C6) was 5.27.
